Some results are limits rather than exact numbers.

The assay concerns the target T1, Human complement C1s enzyme (Homo sapiens, UniProt P09871).
T1 construct: purified from human serum, Complement Technology, Inc; purchased Complement Technology, Inc; host or cells: human serum
T1 sequence (P09871 438-688 limits assumed): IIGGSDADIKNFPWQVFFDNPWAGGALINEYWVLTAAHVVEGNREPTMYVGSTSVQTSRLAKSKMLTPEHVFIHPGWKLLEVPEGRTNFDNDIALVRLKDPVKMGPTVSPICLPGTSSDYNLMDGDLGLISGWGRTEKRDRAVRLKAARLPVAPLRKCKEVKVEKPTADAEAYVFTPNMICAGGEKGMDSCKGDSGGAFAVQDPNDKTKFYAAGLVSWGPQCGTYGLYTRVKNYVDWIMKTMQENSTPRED
T1 sequence (P09871 16-437 partner limits assumed): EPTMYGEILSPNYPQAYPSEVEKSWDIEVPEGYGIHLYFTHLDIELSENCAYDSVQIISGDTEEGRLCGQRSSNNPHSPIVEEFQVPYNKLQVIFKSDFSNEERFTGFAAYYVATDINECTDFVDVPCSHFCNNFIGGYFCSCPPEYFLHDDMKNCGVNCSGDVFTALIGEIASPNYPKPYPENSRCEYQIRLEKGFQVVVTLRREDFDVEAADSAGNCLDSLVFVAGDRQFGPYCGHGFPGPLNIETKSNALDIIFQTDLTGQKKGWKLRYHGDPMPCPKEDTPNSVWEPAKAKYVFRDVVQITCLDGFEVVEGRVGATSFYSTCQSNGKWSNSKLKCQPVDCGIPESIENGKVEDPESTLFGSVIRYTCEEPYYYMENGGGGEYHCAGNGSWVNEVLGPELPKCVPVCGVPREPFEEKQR
Description: Human C1s Enzyme Assay. The conditions noted are these: human C1s 1.16 nM, 5 min preincubation, substrate Z-L-Lys-SBzl 100 μM, A405; read-out: C1s Protease Activity. Type of assay: biochemical. How it is done:
The assay of Example 3 was used to determine the IC50's of the compounds. Other standard complement assays are also available.
Example 3. Human C1s Enzyme Assay
Human complement C1s enzyme (purified from human serum, Complement Technology, Inc.) at 1.16 nM final concentration was incubated with test compound at various concentrations for 5 min at room temperature in 50 mM Tris, 1 M NaCl, pH 7.5. A synthetic substrate Z-L-Lys-SBzl and DTNB (Ellman's reagent) were added to final concentrations of 100 μM each. Absorbance at 405 nm (A405) was recorded at 30 second intervals for 30 min using a microplate spectrophotometer. IC50 values were calculated by nonlinear regression of complement C1s reaction rates as a function of test compound concentration.

Turning to `N=C(N)c1csc([C@H](CO)NC(=O)[C@@H]2C[C@@H](OC(F)F)CN2C(=O)CNC(=O)c2ccc(Oc3ccccc3)cc2)c1` [Compound 198, (2S,4R)-N-((S)-1-(4-carbamimidoylthiophen-2-yl)-2-hydroxyethyl)-4-(difluoromethoxy)-1-((4-phenoxybenzoyl)glycyl)pyrrolidine-2-carboxamide], the IC50 is less than 100 nM.

With `C[C@@H](NC(=O)[C@@H]1C[C@]2(C)C[C@@H]2N1C(=O)CNC(=O)c1ccc(Oc2ccccc2)cc1)c1cc(-c2ncc[nH]2)cs1` [Compound 240, (1S,3S,5S)-N-((R)-1-(4-(1H-imidazol-2-yl)thiophen-2-yl)ethyl)-5-methyl-2-((4-phenoxybenzoyl)glycyl)-2-azabicyclo[3.1.0]hexane-3-carboxamide], the IC50 was less than 100 nM.

Take `N=C(N)c1csc(CNC(=O)[C@@H]2C[C@]3(CN4CCOCC4)C[C@@H]3N2C(=O)CNC(=O)CCCOc2ccccc2)c1` [Compound 135, (1S,3S,5S)-N-((4-carbamimidoylthiophen-2-yl)methyl)-5-(morpholinomethyl)-2-((4-phenoxybutanoyl)glycyl)-2-azabicyclo[3.1.0]hexane-3-carboxamide]: the IC50 is less than 100 nM.

On to `N=C(N)c1csc(CNC(=O)[C@@H]2C[C@]3(CN2C(=O)CNC(=O)c2ccc(Oc4ccccc4)cc2)CC3(F)F)c1` [Compound 22, (3R,6S)-N-((4-carbamimidoylthiophen-2-yl)methyl)-1,1-difluoro-5-((4-phenoxy-benzoyl)glycyl)-5-azaspiro[2.4]heptane-6-carboxamide], for which the IC50 was less than 100 nM.

For the molecule `C[C@@]12C[C@@H]1N(C(=O)CNC(=O)c1ccc(Oc3ccccc3)cc1)[C@H](C(=O)NCc1ncc(C(=N)N)s1)C2` [Compound 235, (1S,3S,5S)-N-((5-carbamimidoylthiazol-2-yl)methyl)-5-methyl-2-((4-phenoxybenzoyl)glycyl)-2-azabicyclo[3.1.0]hexane-3-carboxamide], the IC50 was less than 100 nM.

As for `Cc1ccccc1[C@H]1C[C@@H](C(=O)N[C@H](C)c2cc(C(=N)N)cs2)N(C(=O)CNC(=O)c2ccc(Oc3ccccc3)cc2)C1` [Compound 238, (2S,4R)-N-((R)-1-(4-carbamimidoylthiophen-2-yl)ethyl)-1-((4-phenoxybenzoyl)glycyl)-4-(o-tolyl)pyrrolidine-2-carboxamide], the IC50 was less than 100 nM.

On to `N=C(N)c1csc(CNC(=O)[C@@H]2C[C@](F)(CF)CN2C(=O)CNC(=O)CCCOc2ccccc2)c1` [Compound 33, (2S,4R)-N-((4-carbamimidoylthiophen-2-yl)methyl)-4-fluoro-4-(fluoromethyl)-1-((4-phenoxybutanoyl)glycyl)pyrrolidine-2-carboxamide], for which the IC50 is less than 100 nM.

As for `CC1(c2ccc(OCCCC(=O)NCC(=O)N3[C@H]4C[C@@]4(C)C[C@H]3C(=O)NCc3cc(C(=N)N)cs3)cc2)COC1` [Compound 140, (1S,3S,5S)-N-((4-carbamimidoylthiophen-2-yl)methyl)-5-methyl-2-((4-(4-(3-methyloxetan-3-yl)phenoxy)butanoyl)glycyl)-2-azabicyclo[3.1.0]hexane-3-carboxamide], the IC50 was less than 100 nM.

On to `C[C@@]12C[C@@H]1N(C(=O)CNC(=O)c1ccc(Oc3ccccn3)cc1)[C@H](C(=O)NCc1cc(C(=N)N)cs1)C2` [Compound 153, (1S,3S,5S)-N-((4-carbamimidoylthiophen-2-yl)methyl)-5-methyl-2-((4-(pyridin-2-yloxy)benzoyl)glycyl)-2-azabicyclo[3.1.0]hexane-3-carboxamide], for which the IC50 is less than 100 nM.

With `CO[C@H]1[C@@H](C(=O)NCc2cc(C(=N)N)cs2)N(C(=O)CNC(=O)CCCOc2ccccc2)C[C@@H]1F` [Compound 113, (2S,3S,4S)-N-((4-carbamimidoylthiophen-2-yl)methyl)-4-fluoro-3-methoxy-1-((4-phenoxybutanoyl)glycyl)pyrrolidine-2-carboxamide], the IC50 is 100 to 1000 nM.

These data come from patent publication US20250171423A1, “PHARMACEUTICAL COMPOUNDS FOR THE TREATMENT OF COMPLEMENT MEDIATED DISORDERS” (Achillion Pharmaceuticals, Inc., priority 2020, published 2025).
